Among the data in ChEMBL document CHEMBL1145914 (J Med Chem, 2003) are Ki and IC2x values, retold here.

Assay [1] deals with Coagulation factor X (Homo sapiens, UniProt P00742). As to the kind of experiment: Tested in vitro for inhibition of human Coagulation factor X.
The target in assay [2] is Prothrombin (Homo sapiens, UniProt P00734). Put plainly: In vitro for inhibition of human thrombin.
In assay [3] the target is Serine protease 1 (Homo sapiens, UniProt P07477). Put plainly: Tested in vitro for inhibition of human trypsin.
Serine protease 1, sequence (P07477 whole entry): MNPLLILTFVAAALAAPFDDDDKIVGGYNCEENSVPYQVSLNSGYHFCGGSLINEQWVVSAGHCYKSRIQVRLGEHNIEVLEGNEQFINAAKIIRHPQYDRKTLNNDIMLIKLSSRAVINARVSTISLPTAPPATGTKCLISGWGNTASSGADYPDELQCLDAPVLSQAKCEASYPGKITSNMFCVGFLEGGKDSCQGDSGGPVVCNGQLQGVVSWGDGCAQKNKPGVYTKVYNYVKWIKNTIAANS
The species named for assay [4] is Homo sapiens. As to the kind of experiment: human activated partial thromboplastin time (APTT). It counts as functional.

Coagulation factor X, sequence (P00742 41-179 limits assumed): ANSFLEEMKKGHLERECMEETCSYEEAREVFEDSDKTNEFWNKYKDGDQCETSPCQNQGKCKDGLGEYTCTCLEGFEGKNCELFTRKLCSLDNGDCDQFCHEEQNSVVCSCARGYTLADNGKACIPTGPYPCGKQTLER
Coagulation factor X, sequence (P00742 235-488 limits assumed): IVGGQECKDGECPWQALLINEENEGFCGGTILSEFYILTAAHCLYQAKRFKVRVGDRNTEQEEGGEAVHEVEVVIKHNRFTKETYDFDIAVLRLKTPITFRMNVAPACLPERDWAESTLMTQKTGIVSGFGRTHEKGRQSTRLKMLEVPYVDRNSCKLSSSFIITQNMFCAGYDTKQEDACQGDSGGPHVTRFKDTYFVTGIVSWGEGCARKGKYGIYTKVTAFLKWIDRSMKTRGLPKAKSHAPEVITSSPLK

Take `CC(C)NCc1ccccc1-n1nc(C(F)(F)F)cc1C(=O)Nc1ccc(-c2ccccc2S(C)(=O)=O)cc1F`: the results for the Ki in assay [1], in assay [2] and in assay [3] were 0.038 µM, > 21 µM and > 2.5 µM, respectively.

On to `CNCc1ccccc1-n1nc(C(F)(F)F)cc1C(=O)Nc1ccc(-c2ccccc2S(C)(=O)=O)cc1F`, for which the Ki in assay [1] is 0.028 µM; in assay [2], > 21 µM; in assay [3] it was > 2.5 µM.

On to `COc1ccc(-n2nc(C(F)(F)F)cc2C(=O)Nc2ccc(-c3ccccc3S(C)(=O)=O)cc2F)cc1`, for which the Ki in assay [1] was 0.0036 µM; in assay [2], > 21 µM; in assay [3], > 2.5 µM. The IC2x in assay [4] turned out to be 64.9 µM.

`Cc1cc(C(=O)Nc2ccc(-c3ccccc3S(N)(=O)=O)cc2)n(-c2cccc(C(=N)N)c2)n1`: the IC2x in assay [4] came to 0.44 µM.

Take `COc1ccccc1-n1nc(C)cc1C(=O)Nc1ccc(-c2ccccc2S(N)(=O)=O)cc1`: the Ki in assay [1] is > 30 µM; in assay [2], > 21 µM; in assay [3] it was > 1.5 µM.

Turning to `COc1ccc(-n2nc(C)cc2C(=O)Nc2ccc(-c3ccccc3S(N)(=O)=O)cc2)cc1CN`, the Ki in assay [1] is 0.27 µM; in assay [2] it was > 13 µM.

As to `COc1ccc(-n2nc(C)cc2C(=O)Nc2ccc(-c3ccccc3S(N)(=O)=O)cc2)c(CN)c1`, the Ki in assay [1] was 0.0038 µM; in assay [2] it was > 21 µM; in assay [3] it was > 1.6 µM. In assay [4], this molecule registered an IC2x of 12 µM.

As to `CS(=O)(=O)c1ccccc1-c1ccc(NC(=O)c2cc(C(F)(F)F)nn2-c2ccccc2CCN)c(F)c1`, the figures for the Ki in assay [1], in assay [2] and in assay [3] were 0.11 µM, > 21 µM and > 2.5 µM, respectively.

Turning to `Cc1cc(C(=O)Nc2ccc(-c3ccccc3S(N)(=O)=O)cc2)n(-c2cccc(O)c2)n1`, the Ki in assay [1] was 0.164 µM; in assay [2], > 21 µM; in assay [3], > 1.5 µM.

Take `COc1ccc(-n2nc(C(F)(F)F)cc2C(=O)Nc2ccc(-c3ccccc3S(N)(=O)=O)cc2)c(CN)c1`: the Ki in assay [1] was 0.0024 µM; in assay [2], 14 µM; in assay [3] it was > 1.6 µM. In assay [4], the IC2x stood at 14.5 µM.

With `Cc1cc(C(=O)Nc2ccc(-c3ccccc3S(N)(=O)=O)cc2)n(-c2ccccc2)n1`, the Ki in assay [3] was > 1.5 µM.

In the case of `CS(=O)(=O)c1ccccc1-c1ccc(NC(=O)c2cc(C(F)(F)F)nn2-c2ccccc2CNCc2ccccc2)c(F)c1`, the Ki in assay [1] is 0.061 µM; in assay [2], > 21 µM.

Take `COc1cccc(-n2nc(C)cc2C(=O)Nc2ccc(-c3ccccc3S(N)(=O)=O)cc2)c1`: the Ki in assay [1] was 0.11 µM; in assay [2], > 21 µM; in assay [3], > 1.5 µM.

As for `COc1ccc(-n2nc(C)cc2C(=O)Nc2ccc(-c3ccccc3S(N)(=O)=O)cc2F)cc1`, the Ki is 0.0053 µM in assay [1], > 21 µM in assay [2] and > 1.5 µM in assay [3].

With `CN(C)Cc1ccccc1-n1nc(C(F)(F)F)cc1C(=O)Nc1ccc(-c2ccccc2S(C)(=O)=O)cc1F`, the values for the Ki in assay [1] and in assay [2] were 0.8 µM and > 21 µM, respectively.

Regarding `COc1ccc(-n2nc(C(F)(F)F)cc2C(=O)Nc2ccc(-c3ccccc3S(N)(=O)=O)cc2)cc1`, the IC2x in assay [4] was 104 µM. In addition, the Ki is > 21 µM in assay [2] and > 1.5 µM in assay [3].

Regarding `Cc1cc(C(=O)Nc2ccc(-c3ccccc3S(N)(=O)=O)cc2)n(-c2ccc(O)cc2)n1`, the Ki was 0.9 µM in assay [1], > 21 µM in assay [2] and > 1.5 µM in assay [3].

Consider `Cc1cc(C(=O)Nc2ccc(-c3ccccc3S(N)(=O)=O)cc2)n(-c2ccccc2O)n1`, for which the Ki in assay [1] was 1.2 µM; in assay [2] it was > 21 µM; in assay [3], > 1.5 µM.

As for `COc1ccc(-n2nc(C(F)(F)F)cc2C(=O)Nc2ccc(-c3ccccc3S(N)(=O)=O)cc2F)cc1`, the figures for the inhibitory constant (Ki) in assay [1] and in assay [2] were 0.0042 µM and > 21 µM, respectively.

Molecule `Cc1cc(C(=O)Nc2ccc(-c3ccccc3S(N)(=O)=O)cc2)n(-c2cccc(CN)c2)n1` had an IC2x in assay [4] of 2.3 µM. For the same molecule, the inhibition constant Ki in assay [2] is > 21 µM.

For `CS(=O)(=O)c1ccccc1-c1ccc(NC(=O)c2cc(C(F)(F)F)nn2-c2ccccc2CCCN)c(F)c1`, the Ki in assay [1] was 0.6 µM; in assay [2] it was > 21 µM.

A word on the Ki: it is the equilibrium dissociation constant of an inhibitor or competing ligand from its target. High values mean lower affinity, low ones higher affinity.
